Experimental data: the kinase profiling compilation of Christmann-Franck et al. (2016)

How the values were obtained:
Assay in all cases: KINOMEscan competition binding
Settings in all cases: compound 10.0 µM
[1] = target: CSNK1E (human) (UniProt P49674)
[2] = test system: KIT (human), P10721 [V559D/T670I]
[3] = target: CaMK1 (human) (UniProt Q14012)
[4] = target: CDK19 (human) (UniProt Q9BWU1)
[5] = target: PAK3 (human) (UniProt O75914)
[6] = target: CSNK2A2 (human) (UniProt P19784)
[7] = target: SBK1 (human) (UniProt Q52WX2)
[8] = target: LIMK1 (human) (UniProt P53667)
[9] = test system: PIK3CA (human), P42336 [Q546K]
[10] = target: MYLK2 (human) (UniProt Q9H1R3)
[11] = target: EPHA5 (human) (UniProt P54756)
[12] = target: STK32A (human) (UniProt Q8WU08)
[13] = target: FGFR4 (human) (UniProt P22455)
[14] = target: MAP3K9 (human) (UniProt P80192)
[15] = target: MAPKAPK2 (human) (UniProt P49137)
[16] = target: OXSR1 (human) (UniProt O95747)
[17] = target: PDGFRB (human) (UniProt P09619)
[18] = target: NEK5 (human) (UniProt Q6P3R8)
[19] = target: RIOK1 (human) (UniProt Q9BRS2)
[20] = test system: KIT (human), P10721 [V559D]
[21] = target: PRPF4B (human) (UniProt Q13523)
[22] = target: NTRK1 (human) (UniProt P04629)
[23] = target: FLT4 (human) (UniProt P35916)
[24] = target: PKMYT1 (human) (UniProt Q99640)
[25] = target: SRPK3 (human) (UniProt Q9UPE1)
[26] = target: MAPK7 (human) (UniProt Q13164)
[27] = target: PRKCH (human) (UniProt P24723)
[28] = target: MYLK (human) (UniProt Q15746)
[29] = target: MELK (human) (UniProt Q14680)
[30] = target: CSNK1G3 (human) (UniProt Q9Y6M4)
[31] = target: MAPK12 (human) (UniProt P53778)
[32] = target: MAPK8 (human) (UniProt P45983)
[33] = test system: PIK3CA (human), P42336 [I800L]
[34] = target: STK38L (human) (UniProt Q9Y2H1)
[35] = target: TNIK (human) (UniProt Q9UKE5)
[36] = target: RPS6KA2 KD2 (human) (UniProt Q15349)
[37] = target: ROS1 (human) (UniProt P08922)
[38] = target: MARK2 (human) (UniProt Q7KZI7)
[39] = target: SNRK (human) (UniProt Q9NRH2)
[40] = target: RIOK2 (human) (UniProt Q9BVS4)
RIOK2 (human), sequence (Q9BVS4 whole entry, looked up): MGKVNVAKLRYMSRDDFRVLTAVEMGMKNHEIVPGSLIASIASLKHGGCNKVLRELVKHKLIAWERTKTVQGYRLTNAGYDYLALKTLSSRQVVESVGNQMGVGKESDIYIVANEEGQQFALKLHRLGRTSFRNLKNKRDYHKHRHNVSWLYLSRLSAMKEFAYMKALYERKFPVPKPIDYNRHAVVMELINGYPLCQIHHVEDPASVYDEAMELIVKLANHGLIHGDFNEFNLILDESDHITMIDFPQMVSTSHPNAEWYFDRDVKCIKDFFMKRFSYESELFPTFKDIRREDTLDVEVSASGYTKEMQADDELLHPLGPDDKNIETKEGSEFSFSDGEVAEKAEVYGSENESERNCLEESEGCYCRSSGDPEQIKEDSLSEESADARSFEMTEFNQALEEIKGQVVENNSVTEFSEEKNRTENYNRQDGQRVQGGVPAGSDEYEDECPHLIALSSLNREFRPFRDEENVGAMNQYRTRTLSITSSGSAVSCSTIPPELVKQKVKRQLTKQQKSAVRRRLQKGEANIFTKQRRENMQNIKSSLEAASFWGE

MYLK2 (human), sequence (Q9H1R3 whole entry, looked up): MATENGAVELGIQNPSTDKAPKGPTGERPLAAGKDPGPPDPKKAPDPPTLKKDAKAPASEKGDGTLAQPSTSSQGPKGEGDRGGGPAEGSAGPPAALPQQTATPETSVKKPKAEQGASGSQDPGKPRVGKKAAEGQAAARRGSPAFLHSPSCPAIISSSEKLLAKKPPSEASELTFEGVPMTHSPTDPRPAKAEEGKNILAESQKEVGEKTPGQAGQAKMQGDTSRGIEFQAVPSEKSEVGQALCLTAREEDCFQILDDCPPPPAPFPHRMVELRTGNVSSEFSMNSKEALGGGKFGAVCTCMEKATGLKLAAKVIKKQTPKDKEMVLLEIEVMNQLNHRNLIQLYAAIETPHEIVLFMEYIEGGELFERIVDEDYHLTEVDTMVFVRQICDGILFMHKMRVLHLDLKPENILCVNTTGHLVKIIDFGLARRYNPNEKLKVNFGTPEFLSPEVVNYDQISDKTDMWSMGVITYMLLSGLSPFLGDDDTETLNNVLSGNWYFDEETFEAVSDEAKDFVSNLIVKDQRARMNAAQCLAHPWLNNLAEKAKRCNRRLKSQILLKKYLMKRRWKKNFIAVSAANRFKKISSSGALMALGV
PRKCH (human), sequence (P24723 whole entry, looked up): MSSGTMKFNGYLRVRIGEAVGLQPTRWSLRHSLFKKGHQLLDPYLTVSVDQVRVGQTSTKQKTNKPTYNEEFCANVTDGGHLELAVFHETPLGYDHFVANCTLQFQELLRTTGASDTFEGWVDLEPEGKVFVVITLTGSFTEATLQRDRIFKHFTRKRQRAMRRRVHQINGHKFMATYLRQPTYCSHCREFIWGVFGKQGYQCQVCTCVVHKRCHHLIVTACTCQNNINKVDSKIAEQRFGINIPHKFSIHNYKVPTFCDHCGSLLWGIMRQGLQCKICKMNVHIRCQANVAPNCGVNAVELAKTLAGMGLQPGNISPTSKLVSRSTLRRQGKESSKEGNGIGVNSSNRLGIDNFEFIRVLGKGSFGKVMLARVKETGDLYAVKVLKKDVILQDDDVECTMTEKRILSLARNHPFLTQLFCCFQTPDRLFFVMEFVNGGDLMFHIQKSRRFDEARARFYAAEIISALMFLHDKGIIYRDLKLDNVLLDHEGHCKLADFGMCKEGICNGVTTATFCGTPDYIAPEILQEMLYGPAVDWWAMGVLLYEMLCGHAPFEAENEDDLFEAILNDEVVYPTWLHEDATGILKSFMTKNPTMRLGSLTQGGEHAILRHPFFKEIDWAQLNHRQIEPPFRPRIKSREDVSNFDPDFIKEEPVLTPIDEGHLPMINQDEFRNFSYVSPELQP
FGFR4 (human), sequence (P22455 whole entry, looked up): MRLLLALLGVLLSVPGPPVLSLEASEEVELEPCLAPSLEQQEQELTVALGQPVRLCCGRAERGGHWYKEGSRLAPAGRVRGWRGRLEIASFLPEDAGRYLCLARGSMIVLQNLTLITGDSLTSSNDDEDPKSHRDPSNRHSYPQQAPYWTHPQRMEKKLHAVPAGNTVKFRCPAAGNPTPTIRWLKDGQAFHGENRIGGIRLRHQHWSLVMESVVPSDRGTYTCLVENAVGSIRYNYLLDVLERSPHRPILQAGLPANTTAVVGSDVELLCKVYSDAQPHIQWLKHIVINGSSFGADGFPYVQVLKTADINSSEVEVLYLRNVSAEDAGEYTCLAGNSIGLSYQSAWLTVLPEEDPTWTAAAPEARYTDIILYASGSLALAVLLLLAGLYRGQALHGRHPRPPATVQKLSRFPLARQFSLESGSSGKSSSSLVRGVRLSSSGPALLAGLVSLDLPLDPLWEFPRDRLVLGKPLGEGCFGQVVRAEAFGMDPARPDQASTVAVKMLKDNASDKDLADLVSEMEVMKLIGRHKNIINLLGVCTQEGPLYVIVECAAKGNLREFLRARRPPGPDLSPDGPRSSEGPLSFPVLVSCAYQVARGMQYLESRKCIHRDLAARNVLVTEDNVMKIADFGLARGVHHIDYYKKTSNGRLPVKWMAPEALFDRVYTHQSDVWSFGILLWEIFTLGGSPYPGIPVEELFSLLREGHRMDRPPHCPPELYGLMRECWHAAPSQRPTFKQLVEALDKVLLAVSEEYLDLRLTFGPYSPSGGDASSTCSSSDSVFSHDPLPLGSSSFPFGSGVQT
RIOK1 (human), sequence (Q9BRS2 whole entry, looked up): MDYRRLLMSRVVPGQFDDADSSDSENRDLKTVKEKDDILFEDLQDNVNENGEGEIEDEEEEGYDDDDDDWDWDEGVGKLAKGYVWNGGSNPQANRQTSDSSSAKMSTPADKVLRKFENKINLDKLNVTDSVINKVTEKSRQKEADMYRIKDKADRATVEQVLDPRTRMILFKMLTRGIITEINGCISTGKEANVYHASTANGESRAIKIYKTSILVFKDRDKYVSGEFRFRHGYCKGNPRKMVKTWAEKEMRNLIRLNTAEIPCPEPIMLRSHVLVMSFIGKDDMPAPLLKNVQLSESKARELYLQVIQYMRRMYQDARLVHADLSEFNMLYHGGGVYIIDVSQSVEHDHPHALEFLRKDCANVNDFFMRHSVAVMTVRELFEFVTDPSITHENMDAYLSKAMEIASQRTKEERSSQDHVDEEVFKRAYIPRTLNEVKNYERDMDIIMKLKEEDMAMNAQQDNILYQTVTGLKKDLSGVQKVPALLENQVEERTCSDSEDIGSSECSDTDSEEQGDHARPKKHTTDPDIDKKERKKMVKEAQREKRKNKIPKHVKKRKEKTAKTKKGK
RPS6KA2 KD2 (human), sequence (Q15349 whole entry, looked up): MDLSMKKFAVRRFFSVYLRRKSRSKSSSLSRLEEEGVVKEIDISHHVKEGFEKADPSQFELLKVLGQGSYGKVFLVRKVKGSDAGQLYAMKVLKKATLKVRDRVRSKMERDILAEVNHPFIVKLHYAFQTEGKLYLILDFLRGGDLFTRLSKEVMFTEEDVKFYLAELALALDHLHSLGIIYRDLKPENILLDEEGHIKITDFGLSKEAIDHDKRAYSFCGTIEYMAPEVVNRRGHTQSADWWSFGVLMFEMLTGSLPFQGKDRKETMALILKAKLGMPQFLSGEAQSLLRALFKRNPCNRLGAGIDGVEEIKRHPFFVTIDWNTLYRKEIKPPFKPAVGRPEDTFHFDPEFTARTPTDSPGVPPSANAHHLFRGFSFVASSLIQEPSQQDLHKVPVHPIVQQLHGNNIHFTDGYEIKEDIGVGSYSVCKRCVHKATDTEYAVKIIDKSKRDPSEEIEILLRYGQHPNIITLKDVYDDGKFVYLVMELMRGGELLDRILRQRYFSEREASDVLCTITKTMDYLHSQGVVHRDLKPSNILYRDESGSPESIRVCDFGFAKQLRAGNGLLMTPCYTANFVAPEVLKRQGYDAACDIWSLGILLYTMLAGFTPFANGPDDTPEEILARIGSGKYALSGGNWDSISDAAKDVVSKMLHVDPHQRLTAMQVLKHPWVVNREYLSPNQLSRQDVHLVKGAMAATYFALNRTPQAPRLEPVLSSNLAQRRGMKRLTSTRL
MELK (human), sequence (Q14680 whole entry, looked up): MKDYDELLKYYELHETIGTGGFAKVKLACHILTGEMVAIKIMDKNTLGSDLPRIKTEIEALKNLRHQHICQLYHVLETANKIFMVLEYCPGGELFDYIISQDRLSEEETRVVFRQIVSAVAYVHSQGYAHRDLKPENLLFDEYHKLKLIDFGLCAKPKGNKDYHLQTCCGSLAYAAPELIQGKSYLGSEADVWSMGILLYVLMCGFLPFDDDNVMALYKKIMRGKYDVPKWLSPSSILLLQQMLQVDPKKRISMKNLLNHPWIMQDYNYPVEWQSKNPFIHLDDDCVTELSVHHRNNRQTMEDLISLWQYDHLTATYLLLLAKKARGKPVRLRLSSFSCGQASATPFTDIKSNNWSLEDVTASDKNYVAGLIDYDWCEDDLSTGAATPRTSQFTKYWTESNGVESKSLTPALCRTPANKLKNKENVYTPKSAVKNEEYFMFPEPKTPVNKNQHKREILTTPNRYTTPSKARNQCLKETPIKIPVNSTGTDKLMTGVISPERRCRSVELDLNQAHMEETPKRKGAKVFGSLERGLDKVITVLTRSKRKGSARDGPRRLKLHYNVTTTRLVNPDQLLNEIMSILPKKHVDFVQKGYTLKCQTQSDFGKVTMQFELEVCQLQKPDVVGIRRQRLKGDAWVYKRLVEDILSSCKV
MAPK12 (human), sequence (P53778 whole entry, looked up): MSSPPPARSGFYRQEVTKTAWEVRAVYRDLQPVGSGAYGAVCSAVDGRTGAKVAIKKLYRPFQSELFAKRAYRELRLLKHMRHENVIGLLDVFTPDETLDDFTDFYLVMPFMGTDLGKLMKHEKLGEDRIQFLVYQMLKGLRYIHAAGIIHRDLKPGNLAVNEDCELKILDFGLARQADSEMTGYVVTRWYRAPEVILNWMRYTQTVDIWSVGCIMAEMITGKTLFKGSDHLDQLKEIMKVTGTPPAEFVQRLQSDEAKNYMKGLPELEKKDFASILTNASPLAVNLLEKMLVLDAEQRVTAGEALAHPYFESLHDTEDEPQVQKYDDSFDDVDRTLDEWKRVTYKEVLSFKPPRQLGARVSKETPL

| Structure (SMILES) | kinase still bound, per cent of control [3] | kinase still bound, per cent of control [4] | kinase still bound, per cent of control [5] | kinase still bound, per cent of control [6] | kinase still bound, per cent of control [7] | kinase still bound, per cent of control [8] | kinase still bound, per cent of control [10] | kinase still bound, per cent of control [11] | kinase still bound, per cent of control [12] | kinase still bound, per cent of control [13] | kinase still bound, per cent of control [14] | kinase still bound, per cent of control [15] | kinase still bound, per cent of control [16] | kinase still bound, per cent of control [17] | kinase still bound, per cent of control [18] | kinase still bound, per cent of control [19] | kinase still bound, per cent of control [20] | kinase still bound, per cent of control [21] | kinase still bound, per cent of control [22] | kinase still bound, per cent of control [23] | further results |
| --- | --- | --- | --- | --- | --- | --- | --- | --- | --- | --- | --- | --- | --- | --- | --- | --- | --- | --- | --- | --- | --- |
| O=C(NOC[C@H](O)CO)c1ccc(F)c(F)c1Nc1ccc(I)cc1F | 98% | 100% | 100% | 100% | 100% | 68% | 100% | 96% | 80% | 54% | 95% | 84% | 100% | 66% | 78% | 95% | 74% | 77% | 100% | 94% | kinase still bound, per cent of control [1]: 100%; kinase still bound, per cent of control [2]: 90%; kinase still bound, per cent of control [9]: 41%; kinase still bound, per cent of control [24]: 80%; kinase still bound, per cent of control [25]: 100%; kinase still bound, per cent of control [26]: 88%; kinase still bound, per cent of control [27]: 100%; kinase still bound, per cent of control [28]: 96%; kinase still bound, per cent of control [29]: 80%; kinase still bound, per cent of control [30]: 67%; kinase still bound, per cent of control [31]: 100%; kinase still bound, per cent of control [32]: 92%; kinase still bound, per cent of control [33]: 33%; kinase still bound, per cent of control [34]: 100%; kinase still bound, per cent of control [35]: 100%; kinase still bound, per cent of control [36]: 92%; kinase still bound, per cent of control [37]: 92%; kinase still bound, per cent of control [38]: 100%; kinase still bound, per cent of control [39]: 100% |
| CCC(=O)N1CCN(c2ccc(-n3c(=O)ccc4cnc5ccc(-c6cnc7ccccc7c6)cc5c43)cc2C(F)(F)F)CC1 | 50% | 1.2% | 100% | 11% | 88% | 15% | 40% | 100% | 100% | 21% | 84% | 100% | 100% | 24% | 5.8% | 81% | 50% | 100% | 64% | 74% | kinase still bound, per cent of control [1]: 59%; kinase still bound, per cent of control [9]: 6.8%; kinase still bound, per cent of control [24]: 52%; kinase still bound, per cent of control [40]: 24%; kinase still bound, per cent of control [26]: 100%; kinase still bound, per cent of control [27]: 92%; kinase still bound, per cent of control [28]: 87%; kinase still bound, per cent of control [29]: 50%; kinase still bound, per cent of control [30]: 100%; kinase still bound, per cent of control [31]: 71%; kinase still bound, per cent of control [32]: 22%; kinase still bound, per cent of control [33]: 0%; kinase still bound, per cent of control [34]: 94%; kinase still bound, per cent of control [35]: 39%; kinase still bound, per cent of control [36]: 85%; kinase still bound, per cent of control [37]: 71%; kinase still bound, per cent of control [39]: 60% |
| Nc1ccc(-c2ccc3ncc4ccc(=O)n(-c5cccc(C(F)(F)F)c5)c4c3c2)cn1 | 82% | 100% | 100% | 48% | 100% | 100% | 100% | 100% | 100% | 100% | 100% | 100% | 100% | 34% | 94% | 65% | 55% | 100% | 57% | 85% | kinase still bound, per cent of control [2]: 68%; kinase still bound, per cent of control [24]: 94%; kinase still bound, per cent of control [40]: 70%; kinase still bound, per cent of control [25]: 95%; kinase still bound, per cent of control [26]: 100%; kinase still bound, per cent of control [27]: 99%; kinase still bound, per cent of control [28]: 95%; kinase still bound, per cent of control [29]: 50%; kinase still bound, per cent of control [30]: 63%; kinase still bound, per cent of control [31]: 87%; kinase still bound, per cent of control [32]: 60%; kinase still bound, per cent of control [33]: 0%; kinase still bound, per cent of control [34]: 100%; kinase still bound, per cent of control [35]: 68%; kinase still bound, per cent of control [36]: 86%; kinase still bound, per cent of control [37]: 82%; kinase still bound, per cent of control [38]: 100%; kinase still bound, per cent of control [39]: 100% |
| CCCS(=O)(=O)Nc1ccc(F)c(C(=O)c2c[nH]c3ncc(-c4ccc(Cl)cc4)cc23)c1F | 25% | 0.8% | 69% | 100% | 92% | 27% | 18% | 98% | 100% | 100% | 52% | 100% | 95% | 0.15% | 100% | 100% | 0.05% | 92% | 90% | 82% | kinase still bound, per cent of control [2]: 60%; kinase still bound, per cent of control [9]: 86%; kinase still bound, per cent of control [24]: 100%; kinase still bound, per cent of control [40]: 100%; kinase still bound, per cent of control [25]: 100%; kinase still bound, per cent of control [26]: 69%; kinase still bound, per cent of control [27]: 100%; kinase still bound, per cent of control [28]: 91%; kinase still bound, per cent of control [29]: 100%; kinase still bound, per cent of control [30]: 100%; kinase still bound, per cent of control [31]: 93%; kinase still bound, per cent of control [32]: 18%; kinase still bound, per cent of control [33]: 93%; kinase still bound, per cent of control [34]: 100%; kinase still bound, per cent of control [35]: 15%; kinase still bound, per cent of control [36]: 81%; kinase still bound, per cent of control [37]: 100%; kinase still bound, per cent of control [38]: 69%; kinase still bound, per cent of control [39]: 100% |
